melting point [°C]	Structure (SMILES)
226 to 228	N#Cc1c(N2CCCCC2)cc(-c2cccs2)c2c1C(=O)c1ccccc1-2
89 to 91	CNS(=O)(=O)Oc1ccc2c(c1)C(C)(C)C(OC)O2 (centres undefined)
164 to 165	Oc1cc(N=Nc2ccccn2)ccc1-c1ccc(-c2ccc(N=Nc3ccccn3)cc2O)o1
165 to 166	N=C(NC(=O)OCc1ccccc1)c1ccc(C(=O)NCCC(=O)NCCC(=O)OCc2ccccc2)cc1
90 to 91	COc1ccc2c(ccn2-c2ccc(Br)cc2)c1
94 to 94.5	CC(=O)SCC(C)C(=O)N(CC(=O)O)c1ccccc1 (centres undefined)
285 to 287	CC1(C)Oc2ccc(C#N)cc2C(Nc2ccc(=O)[nH]c2)C1O (centres undefined)
193 to 195	CCn1nc(O)nc1S
119 to 132	CCc1nc2c(C)cc(C)nc2n1Cc1ccc(C(=C(Cl)c2nnn[nH]2)c2ccccc2)cc1
130 to 131	Nc1cc(Cl)c(NCCO)cc1[N+](=O)[O-]
151	Cc1cc2cc(CN3CCCCCC3)cnc2cc1NC(=O)c1ccc(-c2ccccc2)cc1F
47 to 49	Cc1cccc(NC(=O)n2nc(Oc3cccc(C(F)(F)F)c3)cc2C)c1
45 to 46	O=S1(=O)OC[C@H]2CCCN21
179 to 181	COc1ccc(CNC(N)=S)cc1OCc1ccccc1
172 to 173	O=C(NCCCN1CCN(c2ncccn2)CC1)NC12CC3CC(CC(C3)C1)C2
91 to 93	COC(=O)C(C)c1ccc2cc(OCc3ccc4ccccc4n3)ccc2c1 (centres undefined)
194 to 195	O=C(O)Cn1cc(Cc2nc3c(F)c(F)cc(F)c3s2)c2ccc(Cl)cc21
98 to 102	CCCNC(=O)C(CCC(=O)NCCCOC(C)=O)NC(=O)OCc1ccccc1 (centres undefined)
240 to 245	Cc1ccc2c(-c3nnn[nH]3)cn(Cc3ccc4oc(-c5nc(C(C)(C)C)cs5)cc4c3)c2c1
57 to 58	C/C(=C\F)CN1C(=O)c2ccccc2C1=O
173 to 175	CS(=O)(=O)c1nc(O)nn1-c1ccccc1
234 to 236	CCOC(=O)c1ccc(-c2csc(-c3ccc(Cl)cc3)n2)s1
97 to 99	CCNc1nc(NCc2ccco2)nc(Nc2ccc3nc(C)sc3c2)n1
119 to 121	Oc1ccc(Oc2ccc(I)cc2)cc1

melting point [°C]	Structure (SMILES)
181 to 185	CC(=O)COc1ccc2cc(S(N)(=O)=O)sc2c1
166 to 171	CC1(C)CCc2ccc(C(=O)O)cc2CC1
165 to 166	O=S1(=O)c2ccccc2Oc2cc(OCC(F)(F)F)ccc21
151 to 155	N=C(Cc1ccccc1)NS(=O)(=O)C=Cc1ccc(Cl)c(Cl)c1
50.7	Nc1cccc(Cc2ccccc2)n1
102 to 105	OC1c2ccccc2Sc2ccccc21
124 to 127	O=C(O)Cc1ccc(Oc2ccc(Cl)nn2)cc1
112 to 114	CCOC(=O)C1=CC(=O)C(C(=O)OCC)=C(S(=O)(=O)c2ccccc2)C1=O
255 to 257	O=C(O)c1ccc2c(c1)S(=O)c1cc(F)ccc1C=C2 (centres undefined)
262 to 264	COc1ccc(Cl)cc1C1(F)C(=O)Nc2cc(C(F)(F)F)cc(C(F)(F)F)c21 (centres undefined)
142 to 143	COc1ccc(COc2nn(Cc3ccccc3)cc2C=O)cc1OCc1nc(-c2ccco2)oc1C
115 to 130	Cc1cccc(S(=O)(=O)OS(=O)(=O)c2cccc(C)c2C)c1C
239 to 241	Nc1ccc(Oc2ccc3cc(Oc4ccc(N)c(O)c4)ccc3c2)cc1O
86 to 88	CN(C)C=Nc1nc(OCOC(=O)C(C)(C)C)ncc1F
153 to 158	CCOC(=O)C1=C(COCc2cc(=O)n(C)c(C)n2)NC(C)=C(C(=O)OC)C1c1cccc(Cl)c1Cl (centres undefined)
116 to 118	Cc1ccc(C(=O)c2ccc(CC#N)n2C)c(Cl)c1
210 to 212	COc1cc(C(C)C)c2c(c1OC)S(=O)(=O)NC2=O
118	COC(=O)c1ccc(OCC2CC(=O)N(c3ccc(OCC(C)C)cc3)C2)cc1 (centres undefined)
307 to 309	N#Cc1c2ccccc2c(-c2ccc(O)cc2)c2c1sc1ccccc12
90 to 92	CC(C)C[C@H](NC(=O)[C@H](Cc1ccccc1)NP(=O)(OCc1ccccc1)OCc1ccccc1)C(=O)O
114 to 115	Cc1oc(-c2ccccc2)nc1COc1ccc(C=CC=O)cc1
57 to 58	COC(=O)c1cnnc2ccccc12
158 to 159	O=C(O)c1ccccc1C=Cc1ccccc1
98 to 100	CC1(C)OC(=O)C(COS(C)(=O)=O)(c2ccc(Cl)cc2Cl)O1 (centres undefined)

melting point [°C]	Structure (SMILES)
174 to 175	CN1C(=O)N(c2c(Cl)cccc2Cl)Cc2cnc(NCCc3ccc(N)cc3)nc21
210 to 212	CCOCc1nc2c(N)nc3cc(N4CCN(CC)C4=O)ccc3c2n1CC(C)(C)O
74 to 76	FCc1cccc(C#CCCc2nc3ccccc3s2)n1
125 to 126	Cc1oc(-c2ccco2)nc1COc1ccc(Cn2cc(CCC(=O)O)c(-c3ccc(F)cc3)n2)cc1
141 to 142	CC(=NN(C)c1ccc(C(F)(F)F)cc1)C(=O)NCc1ccc(Cl)nc1
51 to 54	Nc1ccsc1-c1nc(C2CC2)no1
94 to 95	O=C(Nc1ccccc1)c1csc(Oc2cccc(Cl)c2)n1
139 to 141	CCN1C[C@@H](C(=O)O)N(C(=O)[C@H](C)CSC(=O)c2ccccc2)C1=O
91 to 93	O=C1CCC(=O)N1CCc1ccc(OC(F)(F)F)cc1
210	O=S(=O)(NC(=NO)Nc1ccc(Cl)cc1)c1ccc(-c2ccccn2)s1
189	CN(C(=O)COc1cc(-c2ccccc2)nc2ccccc12)N1CCOCC1
180 to 182	Cc1ccc([N+](=O)[O-])c(C=C(C(=O)O)C(=O)O)c1
93 to 94	O=C(NCCCCCCOC(=O)N1CCC(OC(=O)Oc2ccc([N+](=O)[O-])cc2)CC1)Oc1ccc(Oc2ccccc2)cc1
> 240	O=C(Nc1c(C(O)(C(F)(F)F)C(F)(F)F)ccc2ccccc12)c1cnc2ccccc2n1
132	CCc1cc(OCc2cccc(C(=O)OC)c2)cc(O)c1C(C)=O
255 to 257	Nc1c(-c2ccc(-c3ccc(F)cc3)cc2)nc2ccc(Cl)cc2c1C(=O)O
130 to 134	COc1ccc2oc(C(=O)c3cccnc3F)cc2c1
158 to 159	O=C(O)CC(O)(Cn1cncn1)c1ccc(Cl)cc1Cl (centres undefined)
176 to 178	NCCNC(=O)COc1ccc(C2=NNC(=O)CC2)cc1
193 to 196	COc1ccc2c(c1)c(CC(=O)O)c(C)n2C(=O)c1c(Cl)cc(Cl)cc1Cl
67 to 70	Cc1ccc(-c2cncnc2Cl)cc1
> 350	O=c1[nH]c2cc(Cl)ccc2c(O)c1-c1ccc(I)cc1
138	CC1(C)C(C(=O)O)C1C(C(Cl)(Br)C(F)(F)F)S(C)(=O)=O (centres undefined)

Structure (SMILES)	melting point [°C]
CNC(=O)Oc1ccc(S(C)(=O)=O)c2c1CCCC2	162 to 164
O=C1CSc2nc(Oc3ccc(N4CCNCC4)cc3)ncc2N1	309 to 312
CN(SC(Cl)(Cl)Cl)S(=O)(=O)C(Cl)=C(Cl)Cl	57 to 58

From a melting point compilation (Tetko et al.; mined from patent text by program, amines drawn as free bases though some values may be those of a salt)
